The values below come from patent US8148398B2, “Intermediate duration neuromuscular blocking agents and antagonists thereof” (Cornell Research Foundation, Inc., priority 2006, dated 2012).

Common to all, as to format: in vivo
The test system of series [1] is Rhesus monkeys. Put plainly: Potency and duration of neuromuscular blockade, twitch response in anesthetized rhesus monkeys. As to conditions: for Potency (ED95 mg/kg) / Duration at 4X ED95 / Duration: rhesus monkeys; for Potency (ED95 mg/kg): intravenous, dose achieving 95% neuromuscular blockade; for Duration at 4X ED95: 4xED95 dosage; for Duration: from injection to 95% twitch recovery; for spontaneous recovery from neuromuscular blockade / duration of the neuromuscular blockade (FIG. 7): no antagonist; for effective dosage for 50% neuromuscular blockade (dose-response curve) / effective dosage for 95% neuromuscular blockade (dose-response curve): dose-response curve FIG. 3 / FIG. 10. Here is the method:
(§1) Rhesus monkeys were anesthetized with ketamine (7.5 mg/Kg) given intramuscularly or intravenously. Anesthesia was maintained with a mixture of isoflurane (1.5%), nitrous oxide (60%) and oxygen (40%). The common peroneal nerve was stimulated supramaximally with square wave pulses of 0.2 m sec duration at a rate of 0.15 Hz. Twitch contractions were recorded via the tendon of the extensor digitorum muscle.
(§2) In all animals, the trachea was intubated and ventilation was controlled at 12-15 ml/kg, 18-24 breaths per minute. A peripheral vein and artery were cannulated for drug administration and for recording of arterial pressure, respectively. In preliminary studies a neuromuscular blocking agent having one of the following structures was administered intravenously.

For a further series, the system named is neuromuscular blockade. Put plainly: Reversibility of neuromuscular blockade by cysteine-like antagonists (general statements). Conditions: general statement, no method given.
For series [2], the system named is Rhesus monkeys. Put plainly: Reversal of neuromuscular blockade by cysteine plus glutathione in rhesus monkeys (Example 3). Conditions: for time for reversal of the neuromuscular blockade (FIG. 5, as stated in Example 3): combination of cysteine and glutathione. As for the experimental part: as §1, §2
In studies designed to examine the reversal of the neuromuscular blockade caused by these agents, cysteine and/or glutathione was administered to test animals at selected dosages.
Rhesus monkeys were anesthetized and treated with a neuromuscular blocking agent as described in Example 1.

In series [3] the test system is adult male rhesus monkeys. Put plainly: Reversal of AV002 0.15 mg/kg block by cysteine/glutathione or neostigmine/atropine (Example 5). Conditions: AV002 0.15 mg/kg (3XED95), spontaneous recovery. As for the experimental part: Anesthesia was induced in adult male rhesus monkeys using 7.5 mg/kg ketamine. Tracheae were intubated using topical anesthetic. Anesthesia was maintained with isoflurane 1-2% and N2O/O2 (60%/40%). ECG, temperature, O2 saturation, and blood pressure were monitored and maintained within normal limits. Mechanomyogram (MMG) recordings were made of twitch responses from the extensor digitorum at 0.15 Hz. A control dose of AV002 (0.15 mg/kg; about 3 times the ED95) was given and animals were allowed to recover spontaneously. Another dose of 0.15 mg/kg of AV002 was given approximately 30 minutes after return of train of four (TOF) to greater than 100%. Reversal of the second dose of AV002 was attempted in four separate groups of animals with either:
1) cysteine 30 mg/kg and glutathione 30 mg/kg at 1 minute after injection of AV002,
2) cysteine 30 mg/kg and glutathione 30 mg/kg at the first sign of recovery of twitch,
3) neostigmine 0.05 mg/kg and atropine 0.03 mg/kg at 1 minute after injection of AV002, or
4) neostigmine 0.05 mg/kg and atropine 0.03 mg/kg at the first sign of recovery of twitch.
Comparative recovery intervals and total duration were analyzed using the student t-test.

Series [4] relates to Rhesus monkeys. Put plainly: Cardiovascular effects (mean arterial pressure, heart rate) of blocking agents in rhesus monkeys. As to conditions: for change in heart rate / change in mean arterial pressure: even high dosages, FIG. 8 / FIG. 9; for physiological distress to the circulation in vivo: rhesus monkeys. As for the experimental part: as §1, §2
Rhesus monkeys were anesthetized and treated with a neuromuscular blocking agent as described in Example 1. FIGS. 8 and 9 provide mean values for the cardiovascular effects of administration of the AV002 and AV001 neuromuscular blocking agents, respectively as a function of dosage.

[5] abbreviates: 0.1 mg/kg blocking agent, FIG. 1 / FIG. 4.

On to `COc1ccc(C[C@H]2c3cc(OC)c(OC)cc3CC[N@@+]2(C)CCCOC(=O)/C=C/C(=O)OCCC[N@+]2(C)CCc3cc(OC)c(OC)cc3[C@@H]2Cc2ccc(OC)c(OC)c2)cc1OC` [AV003], for which, in the series on Rhesus monkeys [1], the “Potency (ED95 mg/kg)” value was determined as 0.20 mg/kg, the “Duration at 4X ED95” value was 45 to 60 min and the “Duration” value fell in the range of 25 to 40 min.
Regarding `COc1cc(CC2c3c(cc(OC)c(OC)c3OC)CC[N+]2(C)CCCOC(=O)CCC(=O)OCCC[N+]2(C)CCc3cc(OC)c(OC)c(OC)c3C2Cc2cc(OC)c(OC)c(OC)c2)cc(OC)c1OC` (stereo not drawn) [doxacurium], the “reversal of the blockade by cysteine-like molecules (cysteine, glutathione)” value (shortened to “reversal of the blockade”) in the series with neuromuscular blockade is given as “no reversal effect whatsoever”.
On to `COc1ccc(C[C@@H]2c3cc(OC)c(OC)cc3CC[N@@+]2(C)CCCOC(=O)/C=C/C(=O)OCCC[N@+]2(C)CCc3cc(OC)c(OC)cc3[C@H]2Cc2ccc(OC)c(OC)c2)cc1OC` [AV002], for which, in the series with Rhesus monkeys [1] (setting [5]), the “spontaneous recovery from neuromuscular blockade” value (“spontaneous recovery” below) was “about 1600 seconds”. The “duration of the neuromuscular blockade (FIG. 7)” value with Rhesus monkeys [1] (0.1 mg/kg) is listed as “about 1766 seconds”. Moreover, in the series with Rhesus monkeys [1] (0.2 mg/kg blocking agent, FIG. 6), the “spontaneous recovery” value was “about 1730 seconds”. The “spontaneous recovery” value with Rhesus monkeys [1] (0.2 mg/kg blocking agent, seconds value restated in minutes) is listed as “about 28.8 min”. For the same molecule, in the series on Rhesus monkeys [1] (0.2 mg/kg), the “duration of the neuromuscular blockade (FIG. 7)” value is “about 2150 seconds”. Further, the “potency of trans isomer (AV002) compared with cis isomer (AV003)” value in the series with Rhesus monkeys [1] (comparison of ED95 values) was “five times more potent”. Besides, in the series with Rhesus monkeys [1], the “effective dosage for 50% neuromuscular blockade (dose-response curve)” value turned out to be 0.031 mg/kg, the “effective dosage for 95% neuromuscular blockade (dose-response curve)” value was 0.045 mg/kg, the “Potency (ED95 mg/kg)” value came to 0.04 mg/kg and the “Duration at 4X ED95” value was in the range of 30 to 35 min. For the same molecule, the “Duration” value in the series with Rhesus monkeys [1] fell in the range of 20 to 25 min. In addition, in the series with Rhesus monkeys [2] (0.1 mg/kg), the “time for reversal of the neuromuscular blockade (FIG. 5, as stated in Example 3)” value is listed as “about 320 seconds”. Moreover, the “recovery from neuromuscular blockade with cysteine plus glutathione” value with Rhesus monkeys [2] (0.2 mg/kg blocking agent, antagonists at 2 minutes, seconds value restated in minutes) is “about 7.5 min”. In addition, in the series on Rhesus monkeys [2] (0.2 mg/kg), the “time for reversal of the neuromuscular blockade (FIG. 5, as stated in Example 3)” value is “about 670 seconds”. Moreover, in series [3], the “Recovery Interval (5-95%) (minutes ± SE)” value stood at 13.78 ± 1.27 min and the “Total Duration (inj − 95%) (minutes ± SE)” value was found to be 30.45 ± 2.24 min. Also, in the series on Rhesus monkeys [4], the “change in heart rate” value is “little or no change”, the “change in mean arterial pressure” value was “little or no change” and the “physiological distress to the circulation in vivo” value is “no signs of causing physiological distress to the circulation”.
For the molecule `COc1ccc(C[C@@H]2c3cc(OC)c(OC)cc3CC[N@+]2(C)CCC(=O)OCCCCCOC(=O)CC[N@@+]2(C)CCc3cc(OC)c(OC)cc3[C@H]2Cc2ccc(OC)c(OC)c2)cc1OC` [cisatracurium], the “reversal of the blockade” value in the series with neuromuscular blockade is given as “no reversal effect whatsoever”.
As to `COc1cc2c(cc1OC)[C@@H](Cc1cc(OC)c(OC)c(OC)c1)[N+](C)(CCCOC(=O)CC/C=C/CCC(=O)OCCC[N+]1(C)CCc3cc(OC)c(OC)cc3[C@H]1Cc1cc(OC)c(OC)c(OC)c1)CC2` (stereo partly drawn) [mivacurium], the “reversal of the blockade” value in the series with neuromuscular blockade is listed as “no reversal effect whatsoever”.
As to `COc1cc2c(cc1OC)[C@@H](Cc1cc(OC)c(OC)c(OC)c1)[N@+](C)(CCCOC(=O)/C=C/C(=O)OCCC[N@+]1(C)CCc3cc(OC)c(OC)cc3[C@H]1Cc1cc(OC)c(OC)c(OC)c1)CC2` [AV001], in the series with Rhesus monkeys [1] (setting [5]), the “spontaneous recovery” value is “about 2800 seconds”. Moreover, in the series with Rhesus monkeys [1], the “effective dosage for 50% neuromuscular blockade (dose-response curve)” value amounted to 0.027 mg/kg, the “effective dosage for 95% neuromuscular blockade (dose-response curve)” value was 0.040 mg/kg, the “Potency (ED95 mg/kg)” value was determined as 0.04 mg/kg and the “Duration at 4X ED95” value was in the range of 50 to 60 min. Moreover, the “Duration” value in the series on Rhesus monkeys [1] was 30 to 40 min. In the series on Rhesus monkeys [2] (0.1 mg/kg, 20 mg/kg cysteine + 10 mg/kg glutathione after two minutes), the “time to reversal of neuromuscular blockade counted from blocking agent administration” value is “about 475 seconds”. The “recovery from neuromuscular blockade with cysteine plus glutathione, overdose” value in the series with Rhesus monkeys [2] (3.0 mg/kg blocking agent, seconds value restated in minutes) is listed as “about 8.5 min”. Further, in the series with Rhesus monkeys [4], the “change in heart rate” value is “little or no change”, the “change in mean arterial pressure” value is on record as “little or no change” and the “physiological distress to the circulation in vivo” value is recorded as “no signs of causing physiological distress to the circulation”.
